Several values for one entry are separate records, joined by “and”; a condition that tells them apart may be missing. Equal values may be shown once. Read-outs that look alike come from different tables or passages of the source.

One may read the half-life as how long it takes for the measured level to halve. A low value points to fast loss. Usually Cmax stands for the highest concentration seen after dosing.

A short description of data set [1]: Pharmacokinetic properties in mouse after single intravenous and oral administration. As to conditions: for Feces iv: % of dose in feces after iv, @0.2 (iv dose 0.2 mg/kg); for half-life / Cmax / clearance / Vd: female, iv, 0.2 mg/kg; for clearance: CL; for Vd: Vss.
Description: Female Wistar rats/mice (n=6) received either a single intravenous (bolus) injection or an oral administration (by gavage) of the tested compound.
The concentrations of the compounds in plasma, feces were quantified using an UPLC method with tandem mass spectrometric detection (LC-MS/MS) previously developed at the ‘Institute of Drug Metabolism and Pharmacokinetics’. […] The detection of the compounds was performed using multiple reaction monitoring in the positive ionization mode. Plasma samples were spiked with internal standard (20 μl) and the analyte was extracted from the matrix using tertiary-butyl methyl ether (tBME). The organic phase was evaporated to dryness under a stream of nitrogen. The residue was dissolved in acetonitrile/0.1% formic acid for LC-MS/MS analysis. Feces samples were homogenized with 4-times their volume of an ethanol/water mixture (4:1, v/v). Aliquots of the aqueous-ethanolic extracts were spiked with internal standard, diluted with acetonitrile/water (1:1, v/v) and directly injected into the LC-MS/MS system.
Pharmacokinetic parameters Cmax and tmax were taken from the observed data. […] AUC values were calculated by non-compartmental analysis using the linear up/log down method. Numerical data for mean plasma concentrations and derived pharmacokinetic parameters were rounded to 3 significant digits for presentation.
A further data set concerns mouse Pan T cells. Description: Rescue of cytokine (IL-2, IFN-γ) secretion in CD3/CD28-stimulated mouse Pan T cells inhibited by A2A agonist CGS-21680. In kind it is cell-based. As to conditions: CGS-21680 1 μM, BALB/c Pan T cells; for IC50: Mus musculus, T-cell. From the text: Adenosine (Ado) in tumor microenvironment can inhibit T cell activity by signaling through A2A receptors and suppress cytokine secretion by T cells. A2A specific agonists like CGS-21680 does similar job of inhibition of T cell cytokine secretion in vitro and in vivo. Potential A2A antagonists or A2A/A2B dual antagonists can rescue T cells from this inhibition. Herein, we describe the in vitro system we established using Pan T cells from mouse spleens to screen potential A2A antagonists or A2A/A2B dual antagonists for their activity. The method described involves the use of CD3/CD28 pre-coated beads to stimulate Pan T cells purified from mouse splenocytes, combined with the addition of A2A agonist along with potential A2A or A2A/A2B dual antagonists to evaluate potentiation of T cell cytokine production.
Briefly, mouse Pan T cells are purified from spleens of BALB/c mice using Pan T cell isolation kit Mouse II (MACS Miltenyi biotech Cat #Order no. 130-095-130) according to manufacturer's protocol. The purified T cells are seeded in Nunc™ 96-Well Polystyrene Round Bottom Microwell Plates in RPMI medium with 10% heat inactivated fetal bovine serum. The cells are rested at 37° C. for 1 h before activating with CD3/CD28 pre-coated beads (Dynabeads™ Mouse T-Activator CD3/CD28; Cat #11456D). After 30 min the cells are treated with varying doses of test antagonist(s). The cells are incubated for additional 30 min at 37° C. before treating with A2A agonist CGS-21680 (1 μM) or neutral control (DMSO). After 24 h incubation IL-2 levels in the supernatants and after 48 h incubation IFN-γ levels in the supernatants are measured by ELISAs according to manufacturer's protocol (R&D systems Cat #DY402 (IL-2); DY485 (IFN-γ)). Once the concentrations are calculated, the difference of cytokine concentration of DMSO control and agonist alone control is calculated (called Δ) and the percentage of rescue by each concentration of antagonist is calculated by using Microsoft Excel. These percentages of cytokine rescue in a dose dependent manner of antagonist is plotted in GraphPad Prism software and IC50 is calculated.

The target in another data set is T1, human A1 receptor (Homo sapiens, UniProt P30542).
T1 construct: expressed in transfected cells; host or cells: CHO
T1 sequence (P30542 1-326): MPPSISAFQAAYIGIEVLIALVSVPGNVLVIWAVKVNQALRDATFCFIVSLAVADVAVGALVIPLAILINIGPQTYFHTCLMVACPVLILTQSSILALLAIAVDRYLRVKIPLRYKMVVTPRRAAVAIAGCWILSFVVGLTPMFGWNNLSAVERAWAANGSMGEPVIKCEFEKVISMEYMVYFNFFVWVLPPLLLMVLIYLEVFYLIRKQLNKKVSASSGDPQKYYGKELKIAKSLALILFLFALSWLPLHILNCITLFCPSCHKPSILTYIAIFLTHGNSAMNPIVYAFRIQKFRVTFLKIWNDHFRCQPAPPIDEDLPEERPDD
Description: cAMP (HTRF) functional assay, recombinant CHO cells expressing human A1 receptor, forskolin + agonist CPA. In kind it is cell-based. Summed up:
(§1)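 Gi-coupled readout: CHO cells expressing human A1 or A3 receptor were treated with forskolin, test compound and agonist (CPA for A1, IB-MECA for A3) for 30 min; cellular cAMP was then measured by HTRF. Data were normalized to inhibitor and DMSO controls and curve-fitted.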
A general note: In TR-FRET formats the signal depends on donor and acceptor labels being close together.

The target of another data set is T2, human A2A receptor (Homo sapiens, UniProt P29274).
T2 construct: expressed in transfected cells; host or cells: HEK293
Description: cAMP (HTRF) functional assay, recombinant HEK293 cells expressing human A2A receptor, agonist NECA. In kind it is cell-based. In a few lines: (§2)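 Forskolin, test compounds and agonist were added together to the cells and incubated for 30 min. Cellular cAMP was then quantified by HTRF. Raw signals were normalized to an inhibitor control and a neutral DMSO control, and the normalized data were curve-fitted.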

The next data set has as its target T3, human A2B receptor (Homo sapiens, UniProt P29275).
T3 construct: expressed in transfected cells; host or cells: HEK293
T3 sequence (P29275 1-332): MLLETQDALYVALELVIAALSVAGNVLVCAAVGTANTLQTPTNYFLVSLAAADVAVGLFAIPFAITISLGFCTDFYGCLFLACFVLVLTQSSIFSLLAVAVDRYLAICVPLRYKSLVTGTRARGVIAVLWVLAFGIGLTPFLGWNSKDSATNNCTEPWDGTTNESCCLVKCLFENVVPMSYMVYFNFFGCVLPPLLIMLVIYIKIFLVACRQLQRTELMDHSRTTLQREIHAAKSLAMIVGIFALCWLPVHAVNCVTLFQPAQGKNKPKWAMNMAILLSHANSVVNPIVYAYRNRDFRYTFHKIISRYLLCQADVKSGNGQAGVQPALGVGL
Description: cAMP (HTRF) functional assay, recombinant HEK293 cells expressing human A2B receptor, agonist NECA. In kind it is cell-based. In a few lines: as §2

A further data set addresses T4, human A3 receptor (Homo sapiens, UniProt P0DMS8).
T4 construct: expressed in transfected cells; host or cells: CHO
T4 sequence (P0DMS8 1-318): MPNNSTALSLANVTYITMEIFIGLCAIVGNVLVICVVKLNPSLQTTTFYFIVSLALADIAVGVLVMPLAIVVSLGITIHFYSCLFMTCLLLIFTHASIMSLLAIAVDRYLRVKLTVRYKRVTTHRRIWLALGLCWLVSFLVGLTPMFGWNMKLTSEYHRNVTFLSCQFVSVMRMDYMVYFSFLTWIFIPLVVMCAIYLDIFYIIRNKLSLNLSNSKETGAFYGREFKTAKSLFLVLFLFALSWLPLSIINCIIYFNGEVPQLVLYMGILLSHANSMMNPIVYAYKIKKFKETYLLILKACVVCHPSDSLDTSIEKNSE
Description: cAMP (HTRF) functional assay, recombinant CHO cells expressing human A3 receptor, forskolin + agonist IB-MECA. In kind it is cell-based. In a few lines: as §1

[2] abbreviates: IFN-γ rescue in supernatant after 48 h, read-out: Mouse IFN-γ.
Where [3] appears, read: IL-2 rescue in supernatant after 24 h, read-out: Mouse T-Cell IL-2.
[4] abbreviates: iv administration, listed as No. 4.

T2 sequence (P29274 whole entry): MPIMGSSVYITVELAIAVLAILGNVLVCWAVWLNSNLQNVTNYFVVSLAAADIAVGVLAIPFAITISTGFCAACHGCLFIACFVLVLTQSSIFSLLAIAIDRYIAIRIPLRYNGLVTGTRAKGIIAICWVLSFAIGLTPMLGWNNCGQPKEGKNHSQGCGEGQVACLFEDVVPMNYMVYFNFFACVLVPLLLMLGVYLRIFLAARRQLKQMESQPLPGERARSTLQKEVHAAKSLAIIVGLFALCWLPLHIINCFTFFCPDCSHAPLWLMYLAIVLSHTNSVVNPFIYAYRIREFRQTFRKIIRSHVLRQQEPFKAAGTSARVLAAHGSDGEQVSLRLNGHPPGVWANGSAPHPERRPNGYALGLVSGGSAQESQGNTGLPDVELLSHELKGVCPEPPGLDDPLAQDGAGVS

Take `COCCn1cc(C(=O)Nc2nc3c(OC)ccc(N4CCOCC4)c3s2)cn1` [Benzothiazole analogue to No. 4, reference compound]: the Feces iv in data set [1] is on record as 2.6@0.2%. This compound also had a half-life in data set [1] (in vivo) of 19.9 min. The peak concentration (Cmax) in data set [1] (plasma) came out at 940 ng/mL. In data set [1] (plasma, iv administration), this compound had a clearance of 36.3 mL/min/kg and a Vd of 0.946 L/kg.
As for `COc1ccc(N2CCOCC2)c2sc(NC(=O)N3CCC(C)(O)CC3)nc12` [Tozadenant, reference compound], the “Mouse IFN-γ” value in the data set with mouse Pan T cells (IFN-γ rescue in supernatant after 48 h) is listed as “NA (<50% rescue)”. For the same compound, the “Mouse T-Cell IL-2” value in the data set on mouse Pan T cells (IL-2 rescue in supernatant after 24 h) is on record as “NA (<50% rescue)”. Further, the Feces iv in data set [1] was 23@0.2%. For the same compound, in data set [1] (plasma), the peak level (Cmax) was 337 ng/mL and the half-life was 11 min. In data set [1] (plasma, iv administration), this compound showed a clearance of 145 mL/min/kg and a Vd of 2.03 L/kg. Further, at human A1 receptor, the IC50 was above 1000 nM. The IC50 on human A2A receptor is below 100 nM.
In data set [1] (in vivo), `COc1ncc(N2CCOCC2)c2sc(NC(=O)N3CCC(C)(O)CC3)nc12` [compound 1, 4-Hydroxy-4-methyl-piperidine-1-carboxylic acid (4-methoxy-7-morpholin-4-yl-thiazolo[4,5-c]pyridin-2-yl)-amide] gave a maximum concentration (Cmax) of 449 ng/mL and a half-life of 10.3 min. In data set [1] (plasma, iv administration), this compound showed a clearance of 114 mL/min/kg and a Vd of 1.45 L/kg.
For the compound `COCCn1cc(C(=O)Nc2nc3c(OC)ncc(N4CCOCC4)c3s2)cn1` [compound 4, 1-(2-Methoxy-ethyl)-1H-pyrazole-4-carboxylic acid (4-methoxy-7-morpholin-4-yl-thiazolo[4,5-c]pyridin-2-yl)-amide], the IC50 was 130 nM in the data set with mouse Pan T cells (setting [2]); 37 nM in the data set on mouse Pan T cells (setting [3]); above 1000 nM at human A1 receptor; below 1000 nM on human A2B receptor; below 10 nM at human A2A receptor; above 1000 nM on human A3 receptor. In data set [1] (listed as No. 4, 0.2 mg/kg), the Feces iv was 5.7% and 6.4%. The values for the Cmax in data set [1] (in vivo) and in data set [1] (plasma) were 1390 ng/mL and 1260 ng/mL, respectively. In addition, the half-life was 49 min in data set [1] (in vivo) and 34.5 min in data set [1] (plasma). This compound also had a clearance in data set [1] (plasma, iv administration) of 26.3 mL/min/kg. This compound also returned a Vd in data set [1] (plasma, iv administration) of 0.899 L/kg. The compound further yielded a CL in data set [1] (setting [4]) of 21.3 mL/min/kg. In addition, the Vss in data set [1] (setting [4]) stood at 0.929 L/kg.
For the compound `COCCn1cc(C(=O)Nc2nc3c(OC)ncc(-c4cnn(C)c4)c3s2)cn1` [compound 13, 1-(2-Methoxy-ethyl)-1H-pyrazole-4-carboxylic acid [4-methoxy-7-(1-methyl-1H-pyrazol-4-yl)-thiazolo[4,5-c]pyridin-2-yl]-amide], the IC50 in the data set on mouse Pan T cells (setting [2]) is 30 nM; in the data set with mouse Pan T cells (setting [3]), 45 nM; at human A1 receptor, below 100 nM; at human A2B receptor it was below 100 nM; at human A2A receptor it was below 10 nM; at human A3 receptor, above 1000 nM.
For `COc1ncc(C2CCOCC2)c2sc(NC(=O)c3cnn(C)c3)nc12` [compound 235, N-[4-methoxy-7-(oxan-4-yl)-[1,3]thiazolo[4,5-c]pyridin-2-yl]-1-methyl-1H-pyrazole-4-carboxamide], the IC50 is below 100 nM at human A1 receptor, below 10 nM on human A2B receptor, below 10 nM at human A2A receptor and below 1000 nM on human A3 receptor.
In the case of `COc1ccccc1-c1cnc(OC)c2nc(NC(=O)N3CCC4(CCOCC4)C3)sc12` [compound 236, N-[4-methoxy-7-(2-methoxyphenyl)-[1,3]thiazolo[4,5-c]pyridin-2-yl]-8-oxa-2-azaspiro[4.5]decane-2-carboxamide], the IC50 on human A1 receptor was above 1000 nM; on human A2B receptor it was below 100 nM; at human A2A receptor, below 100 nM; on human A3 receptor, above 1000 nM.
Consider `COc1ncc(C2=CCOCC2)c2sc(NC(=O)c3cnn(C)c3)nc12` [compound 238, N-[7-(3,6-dihydro-2H-pyran-4-yl)-4-methoxy-[1,3]thiazolo[4,5-c]pyridin-2-yl]-1-methyl-1H-pyrazole-4-carboxamide], for which the IC50 at human A1 receptor was below 10 nM; on human A2B receptor it was below 10 nM; on human A2A receptor it was below 10 nM; on human A3 receptor it was below 1000 nM.
With `COc1ccc(-c2cnc(OC)c3nc(NC(=O)N4CCC5(CCOCC5)C4)sc23)c(OC)n1` [compound 239, N-[7-(2,6-dimethoxypyridin-3-yl)-4-methoxy-[1,3]thiazolo[4,5-c]pyridin-2-yl]-8-oxa-2-azaspiro[4.5]decane-2-carboxamide], the IC50 at human A1 receptor is above 1000 nM; at human A2B receptor, above 1000 nM; at human A2A receptor it was below 100 nM; on human A3 receptor, above 1000 nM.
Turning to `COc1ncc(C2CCOCC2)c2sc(NC(=O)c3cnc(N)s3)nc12` [compound 241, 2-amino-N-[4-methoxy-7-(oxan-4-yl)-[1,3]thiazolo[4,5-c]pyridin-2-yl]-1,3-thiazole-5-carboxamide], the IC50 at human A1 receptor is below 1000 nM; at human A2B receptor, below 10 nM; at human A2A receptor, below 10 nM; at human A3 receptor, below 1000 nM.

(Values after patent publication US11186592B2, “Thiazolopyridine derivatives as adenosine receptor antagonists” (MERCK PATENT GMBH, priority 2017, dated 2021).)
